# Laboratory results published in patent publication US20240262804A1, “NITROGEN-CONTAINING HETEROCYCLIC KETONES, PREPARATION METHODS AND MEDICINAL USES THEREOF” (Hansoh Bio LLC, priority 2021, published 2024).
# Biological target: bovine cardiac myosin (Bos taurus (Bovine), UniProt Q9BE39)
# Assay: Myosin inhibitory potency: PK/LDH-coupled ATPase assay on bovine skinned cardiac myofibrils
# Type: biochemical
# Settings: pCa=6.25, 50 μM ATP, 25° C., read-out: myosin inhibition activity IC50
# Description: The average rates of ATPase inhibition, and the IC50 values are determined by Victor Nivo multimode plate reader (PerkinElmer, USA).
# As to the assays background, a biochemical assay couples the ATPase activity of bovine cardiac myosin to an enzymatic coupling system consisting of pyruvate kinase and lactate dehydrogenase (PK/LDH) and monitoring the absorbance decrease of NADH (at 340 nm) as a function of time to measure the inhibitory ability of small molecule agents. In the assay, PK converts ADP (Adenosine diphosphate) to ATP (adenosine triphosphate) by converting PEP (phosphoenolpyruvate) to pyruvate. Pyruvate is then converted to lactate by LDH by converting NADH (nicotinamide adenine dinucleotide) to NAD (oxidized nicotinamide adenine dinucleotide).
# In our experiments, bovine skinned cardiac myofibrils were isolated from the frozen bovine left ventricle as myosin's source in the ATPase assay. The calcium concentration that achieves a 50% (pCa50 or pCa=6.25) activation of the myofibril system was chosen as the final condition for assessing the activation activity according to the literature (DOI: 10.1074/jbc.M117.776815). Myofibrils ATPase activity was measured in a buffered solution containing 12 mM PIPES (piperazine-N, N′-bis(2-ethane sulfonic acid) and 2 mM magnesium chloride at pH 6.8 (PM12 buffer). Final assay conditions were 1 mg/mL of bovine cardiac myofibrils, 1:20 of stock PK/LDH (Sigma-Aldrich, Cat No. P0294-5X5ML), 50 μM ATP, 1 mM DTT (dithiothreitol), 0.75 mM NADH, 1.5 mM PEP at pCa50 (pCa=6.25). Compounds were dissolved in DMSO (dimethyl sulfoxide). Serial dilution of compounds was created such that the final desired concentration of compound would be achieved in a volume of 150 μL with a fixed DMSO concentration of 2% (v/v). 75 μL of a solution containing bovine cardiac myofibrils, PK/LDH, and calcium were added to a 96 well plate for a 7 point dose-response. In some circumstances, 10 point-response was used to repeat the ATPase assays on compounds of interest. Compounds were added to the myofibrils solution and incubated for 5 minutes. The enzymatic reaction was started with the addition of 75 μL of a solution containing ATP, PEP, NADH, compounds, and calcium. The ATPase activity was measured by reading absorbance at 340 nm in a PerkinElmer Victor Nivo plate reader at 25° C. in kinetic mode for 15 minutes using clear bottom plates. The slopes of the absorbance changes as a function of time for the first 10 minutes were normalized to slopes on the control wells containing all reagents, including DMSO, but without compounds. This normalized rate was then plotted as a function of small molecule concentration in GraphPad prism 9. The data were fitted to a four-parameter fit, and IC50 was calculated using Graphpad Prism 9.
# bovine cardiac myosin, sequence (Q9BE39 whole entry): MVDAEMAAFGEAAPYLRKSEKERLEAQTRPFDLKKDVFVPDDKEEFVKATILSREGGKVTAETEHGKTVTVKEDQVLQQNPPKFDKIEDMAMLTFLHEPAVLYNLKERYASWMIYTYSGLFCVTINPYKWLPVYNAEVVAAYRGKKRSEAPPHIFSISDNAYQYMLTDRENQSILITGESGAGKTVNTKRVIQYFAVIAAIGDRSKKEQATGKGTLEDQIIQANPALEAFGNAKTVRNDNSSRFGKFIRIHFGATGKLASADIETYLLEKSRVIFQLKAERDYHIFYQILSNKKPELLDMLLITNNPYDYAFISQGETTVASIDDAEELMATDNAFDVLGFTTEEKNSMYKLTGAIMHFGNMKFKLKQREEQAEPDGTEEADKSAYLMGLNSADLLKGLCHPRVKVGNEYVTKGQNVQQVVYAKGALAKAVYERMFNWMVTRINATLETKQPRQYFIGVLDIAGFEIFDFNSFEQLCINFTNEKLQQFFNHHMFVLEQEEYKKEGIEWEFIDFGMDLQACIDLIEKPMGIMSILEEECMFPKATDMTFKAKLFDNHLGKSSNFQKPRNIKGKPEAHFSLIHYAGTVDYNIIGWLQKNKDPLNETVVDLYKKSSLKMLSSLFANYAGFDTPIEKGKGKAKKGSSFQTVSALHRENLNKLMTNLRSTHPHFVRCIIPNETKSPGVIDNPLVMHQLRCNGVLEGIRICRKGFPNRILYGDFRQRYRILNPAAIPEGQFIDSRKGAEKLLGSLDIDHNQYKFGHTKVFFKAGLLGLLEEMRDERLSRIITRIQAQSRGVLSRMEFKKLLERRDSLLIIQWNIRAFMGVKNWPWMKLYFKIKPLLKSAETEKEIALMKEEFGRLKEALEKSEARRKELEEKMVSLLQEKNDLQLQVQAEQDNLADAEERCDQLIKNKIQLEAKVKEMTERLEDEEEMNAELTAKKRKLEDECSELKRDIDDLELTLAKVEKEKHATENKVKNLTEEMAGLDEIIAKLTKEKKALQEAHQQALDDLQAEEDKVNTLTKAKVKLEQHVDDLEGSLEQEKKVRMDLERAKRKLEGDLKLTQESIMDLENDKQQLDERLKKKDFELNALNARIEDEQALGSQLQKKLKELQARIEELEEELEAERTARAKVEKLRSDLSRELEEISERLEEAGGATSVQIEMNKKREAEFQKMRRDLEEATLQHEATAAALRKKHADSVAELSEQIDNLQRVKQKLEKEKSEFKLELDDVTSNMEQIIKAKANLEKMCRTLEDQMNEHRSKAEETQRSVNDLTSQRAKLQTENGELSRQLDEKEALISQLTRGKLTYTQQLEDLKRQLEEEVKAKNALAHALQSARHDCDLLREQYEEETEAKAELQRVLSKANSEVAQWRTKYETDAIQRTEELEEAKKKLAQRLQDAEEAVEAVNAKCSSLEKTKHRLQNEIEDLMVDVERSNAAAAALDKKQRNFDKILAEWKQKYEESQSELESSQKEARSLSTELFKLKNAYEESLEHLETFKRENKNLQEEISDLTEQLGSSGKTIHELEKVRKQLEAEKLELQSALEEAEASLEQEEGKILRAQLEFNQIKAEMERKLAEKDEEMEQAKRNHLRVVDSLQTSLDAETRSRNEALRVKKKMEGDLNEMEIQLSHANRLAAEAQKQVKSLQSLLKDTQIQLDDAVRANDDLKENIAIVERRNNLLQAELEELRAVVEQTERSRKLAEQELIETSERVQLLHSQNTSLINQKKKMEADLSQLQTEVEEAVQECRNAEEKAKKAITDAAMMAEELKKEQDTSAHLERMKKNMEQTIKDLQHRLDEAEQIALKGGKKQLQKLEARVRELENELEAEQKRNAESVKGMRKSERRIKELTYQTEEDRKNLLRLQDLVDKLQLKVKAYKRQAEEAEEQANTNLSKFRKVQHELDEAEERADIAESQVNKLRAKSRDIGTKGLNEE
# bovine cardiac myosin, sequence (P85100 whole entry partner): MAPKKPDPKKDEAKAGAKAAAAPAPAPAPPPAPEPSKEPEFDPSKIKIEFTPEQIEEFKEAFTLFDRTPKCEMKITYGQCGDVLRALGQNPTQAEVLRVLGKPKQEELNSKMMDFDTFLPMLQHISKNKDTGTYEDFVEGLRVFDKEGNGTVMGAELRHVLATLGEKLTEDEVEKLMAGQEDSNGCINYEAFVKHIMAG
# bovine cardiac myosin, sequence (Q3SZE5 whole entry partner): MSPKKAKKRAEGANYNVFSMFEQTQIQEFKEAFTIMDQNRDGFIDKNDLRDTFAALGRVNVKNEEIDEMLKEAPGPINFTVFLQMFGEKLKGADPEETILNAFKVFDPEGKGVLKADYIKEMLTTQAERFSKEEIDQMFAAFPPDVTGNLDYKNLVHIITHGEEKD
row,IC50 [µM],Compound
1,7.05,CC(C)n1c(=O)nc(N[C@@H](C)c2ccccc2)[nH]c1=O [Example 3]
2,1.37,C[C@H](Nc1nc(=O)n(C2CCOCC2)c(=O)[nH]1)c1cccc(Cl)c1F [Example 11]
3,2.14,C[C@H](Nc1nc(=O)n(C2CCOCC2)c(=O)[nH]1)c1c(F)cccc1F [Example 12]
4,1.3,C[C@H](Nc1nc(=O)n(C2CCOCC2)c(=O)[nH]1)c1c(F)cccc1Cl [Example 13]
5,1.17,C[C@H](Nc1nc(=O)n([C@@H](C)C(F)(F)F)c(=O)[nH]1)C1CCCCC1 [Example 14]
6,2.16,C[C@H](Nc1nc(=O)n([C@H](C)C(F)(F)F)c(=O)[nH]1)C1CCCCC1 [Example 15]
7,0.69,C[C@H](Nc1nc(=O)n(CC(F)(F)F)c(=O)[nH]1)C1CCCCC1 [Example 16]
8,0.48,C[C@H](Nc1nc(=O)n(C(C2CC2)C(F)(F)F)c(=O)[nH]1)C1CCCCC1 (stereo partly shown) [Example 18]
9,13.2,C[C@H](Nc1nc(=O)n(C2CCNC(=O)C2)c(=O)[nH]1)C1CCCCC1 (stereo partly shown) [Example 22]
10,8.05,C[C@H](Nc1nc(=O)n(C2CCN(C)C(=O)C2)c(=O)[nH]1)C1CCCCC1 (stereo partly shown) [Example 23]
11,9.14,C[C@H](Nc1nc(=O)n(-c2cccnc2)c(=O)[nH]1)C1CCCCC1 [Example 24]
12,5.91,CC(C)N1CCC(n2c(=O)nc(N[C@@H](C)C3CCCCC3)[nH]c2=O)CC1 [Example 31]
13,3.04,C[C@H](Nc1nc(=O)n(C2CCN(C3CC3)CC2)c(=O)[nH]1)C1CCCCC1 [Example 32]
14,3.86,COCCN1CCC(n2c(=O)nc(N[C@@H](C)C3CCCCC3)[nH]c2=O)CC1 [Example 33]
15,2.59,Cc1cccc([C@H](C)Nc2nc(=O)n(C3CCCOC3)c(=O)[nH]2)c1 (stereo partly shown) [Example 35]
16,1.29,Cc1cccc([C@H](C)Nc2nc(=O)n(C3CCN(C(C)C)CC3)c(=O)[nH]2)c1 [Example 37]
17,1.45,COCCN1CCC(n2c(=O)nc(N[C@@H](C)c3cccc(C)c3)[nH]c2=O)CC1 [Example 38]

row,IC50 [µM],Compound
1,6.7,Cc1cccc([C@H](C)Nc2nc(=O)n(C3CCN(CC(F)(F)F)CC3)c(=O)[nH]2)c1 [Example 39]
2,2.21,Cc1cccc([C@H](C)Nc2nc(=O)n([C@@H](C)C(F)(F)F)c(=O)[nH]2)c1 [Example 40]
3,2.19,Cc1cccc([C@H](C)Nc2nc(=O)n([C@H](C)C(F)(F)F)c(=O)[nH]2)c1 [Example 41]
4,9.1,Cc1cccc([C@H](C)Nc2nc(=O)n(CC(F)(F)F)c(=O)[nH]2)c1 [Example 42]
5,1.08,CC(C)Oc1ccc([C@H](C)Nc2nc(=O)n(C3CCOCC3)c(=O)[nH]2)cc1 [Example 43]
6,3.9,C[C@H](Nc1nc(=O)n(C2CCOCC2)c(=O)[nH]1)c1ccccc1 [Example 46]
7,1.13,COc1ccc([C@H](C)Nc2nc(=O)n(C3CCOCC3)c(=O)[nH]2)cc1 [Example 48]
8,11.1,CC(Nc1nc(=O)n(C(C)C)c(=O)[nH]1)c1ccccc1O (stereo not shown) [Example 51]
9,6.14,CC(n1c(=O)nc(N[C@@H](C)C2CCCCC2)[nH]c1=O)C(F)(F)F (stereo partly shown) [Example 52]
10,4.52,C[C@H](Nc1nc(=O)n(C2(C(F)(F)F)CC2)c(=O)[nH]1)C1CCCCC1 [Example 54]
11,4.63,C[C@H](Nc1nc(=O)n(C2CCC(F)(F)CC2)c(=O)[nH]1)C1CCCCC1 [Example 55]
12,1.49,Cc1cc(C)cc([C@H](C)Nc2nc(=O)n(C3CCOCC3)c(=O)[nH]2)c1 [Example 56]
13,7.4,C[C@H](Nc1nc(=O)n(-c2ccccn2)c(=O)[nH]1)C1CCCCC1 [Example 57]
14,2.59,C[C@H](Nc1nc(=O)n(C2CCN(C)CC2)c(=O)[nH]1)C1CCCCC1 [Example 59]
15,7.41,C[C@H](Nc1nc(=O)n(C2CCCCC2)c(=O)[nH]1)C1CCCCC1 [Example 60]
16,4.23,CC(C)n1c(=O)nc(NCCC2CCCCC2)[nH]c1=O [Example 65]

row,Compound,IC50 [µM]
1,C[C@H](Nc1nc(=O)n(C2CCOCC2)c(=O)[nH]1)C1CCCCC1 [Example 2],2.45
